Assay results as given in patent US10973863B2, “Method for regulating, preventing and/or treating pulmonary injury” (SINPHAR PHARMACEUTICAL CO., LTD., priority 2017, dated 2021).

How the values were obtained:
[1] = test system: MMP-9; assay: Gelatin zymography: LPS-activated active expression of MMP-9 in NR8383 cells; assay type: cell-based, rat; details: LPS 1 μg/mL, 24 hours
Source text: As indicated above, when an inflammatory response occurs in animal's pulmonary tissue, the active inflammatory cells will secret MMPs that will destroy the pulmonary tissue structure, cause more serious pulmonary injury, and lead to the decrement in or the loss of pulmonary functions. […]
Thereafter, the medium of each group was collected and respectively subjected to the following procedures. A 10% polyacrylamide gel containing 0.2% gelatin was used to carry out the sodium dodecyl sulfate polyacrylamide gel electrophoresis (SDS-PAGE). After the electrophoresis was completed, the gel was sequentially soaked in 2.5% Triton X-100 solution for 90 minutes to remove SDS, soaked in distillation-distillation water (ddH2O) for 30 minutes, and placed in a reaction solution (50 mM Tris-HCl buffer containing 10 mM CaCl2 and 0.02% NaN3) at a temperature of 37° C. for 18 hours. After the foregoing reaction was completed, the gel was stained by a Coomassie blue staining solution, and the image of stained gel was taken and subjected to an image analysis. The image intensity (the image intensity was calculated based on the size of area and the shade of color) of highlight band (i.e., the gelatin in this area was degraded by MMPs, wherein the area locating around 95 kD molecular weight) on the gel of each group can reflect the active expression of MMP-9 of rat alveolar macrophage NR8383 cells under different conditions (the relative active expression of MMP-9 was calculated by serving the results of the blank group as 0% and serving that of the control group as 100%).
Rat alveolar macrophage NR8383 cells were divided into twenty-eight groups and separately cultivated with the following media for 24 hours: • (1) Blank group: a macrophage growth medium; • (2) Control group: a macrophage growth medium containing 1 μg/mL LPS; • (3) Positive control group: a macrophage growth medium containing 1 μg/mL LPS and 5 μM Prednisolone (a type of corticosteroid; abbreviated as “Pred”; purchased from Sigma-Aldrich); • (4) Extract C (including five sub-groups): a macrophage growth medium containing 1 μg/mL LPS and the extract C provided by [preparation example A-3-2], wherein the extract C is present in the five sub-groups at a concentration of […] respectively; • (5) Extract D (including five sub-groups): a macrophage growth medium containing 1 μg/mL UPS and the extract D provided by [preparation example A-4-2], wherein the extract D is present in the five sub-groups at a concentration of 0.78, 1.56, 3.13, 6.25 and 12.5 respectively; • (6) Extract E (including five sub-groups): a macrophage growth medium containing 1 μg/mL LPS and the extract E provided from [preparation example A-4-3], wherein the extract E is present in the five sub-groups at a concentration of 0.78, 1.56, 3.13, […], and 12.5 respectively; • (7) DATA group (including five sub-groups): a macrophage growth medium containing 1 μg/mL LPS and the dehydrotrametenolic acid (DTTA) provided by [preparation example C-1], wherein the dehydrotrametenolic acid (DTTA) is present in the five sub-groups at a concentration of 0.39, 0.78, 1.56, 3.13 and 6.25 μg/mL respectively; and • (8) PAA group (including live sub-groups): a macrophage growth medium containing 1 μg/mL LPS and the poricoic acid A (PAA) provided from [preparation example C-1], wherein the poricoic acid A (PAA) is present in the five sub-groups at a concentration of 6.25, 12.5, 25, 50 and 100 respectively.
Thereafter, the medium of each group was collected and analyzed by the analyzing procedures same as that of (1-1).

[2] = test system: TGFβ-induced intracellular accumulation of collagen in myofibroblast WI38 cells; assay: Picrosirius red staining: TGFβ-induced collagen accumulation in WI38 cells; assay type: cell-based; details: 1 ng/mL TGF-β
Source text: As indicated above, the hyperactive expression of MMPs will cause pulmonary injury. Under the most circumstances, the response mechanisms in animals will activate, for example, macrophages will secret TGF-β and TGF-β which can promote the lung fibroblasts to secret collagen, so that the damaged tissues can be recovered. However, the hypersecretion of collagen will also lead to lung fibrosis. To investigate whether FU-LING extracts and its active ingredients are effective in regulating, protecting and/or treating the pulmonary injury-related diseases such as lung fibrosis or not, the Picrosirius red (PSR) staining was conducted as a semi-quantification of collagen, so that the inhibitory rate of FU-LING extract and its active ingredients on the TGFβ-induced intracellular accumulation of collagen in myofibroblast WI38 cells can be determined.
Myofibroblast WI38 cells (purchased from ATCC, product no. CCL75™) were divided into ten groups and separately cultivated with the following media for 48 hours:
(1) Blank group: a myolibroblast growth medium;
(2) Control group: a myofibroblast growth medium containing 1 ng/mL TGF-β (purchased from R&D system);
(3) Positive control group: a myofibroblast growth medium containing 1 ng/mL TGF-β and 200 μg/mL Pirfenidone (abbreviated as “Pir”; purchased from Sigma-Aldrich);
(4) Extract A (including four sub-groups): a myofibroblast growth medium containing 1 ng/mL TGF-β and the extract A provided by [Preparation example A-2-2], wherein the extract A is present in the four sub-groups at a concentration of 12.5, 25, 50 and 100 μg/mL respectively; and
(5) Extract B (including three sub-groups): a myofibroblast growth medium containing 1 ng/ml, TGF-β and the extract B provided by [Preparation example A-2-3], wherein the extract B is present in the […] at a concentration of 12.5, 25 and 50 μg/mL respectively.
Thereafter, the media were replaced by methanol to fix the cells at a temperature of −20° C. for 1 to 2 hours. After that, the cells were washed with PBS, and then stained with 0.1% PSR staining agent (purchased from Sigma-Aldrich) at room temperature for 4 hours. The stained cells were washed with 0.1% acetic acid, and then lysed with 0.1N sodium hydroxide to provide a lysate. The OD540 (i.e., the absorbance at a wavelength of 540 nm) of the lysate was measured. OD540 value of each group represents the content of collagen in each group, reflecting the content of collagen in fibroblast WI38 cells under different circumstances (the relative content of collagen in each group was calculated by serving the result of blank group as 0% and serving the result of control group as 100%).
Myofibroblast WI38 cells were divided into twenty-eight groups and separately cultivated with the following media for 24 hours:
(1) Blank group: a myofibroblast growth medium;
(3) Positive control group; a myofibroblast growth medium containing 1 ng/mL TGF-β and 200 μg/mL Pirfenidone (abbreviated as “Pir”; purchased from Sigma-Aldrich);
(4) Extract C group (including five sub-groups): a myofibroblast growth medium containing 1 ng/mL TGF-β and the extract C provided by [preparation example A-3-2], wherein the extract C is present in the five sub-groups at a concentration of […], 6.25 and 12.5 μg/mL respectively;
(5) Extract D group (including five sub-groups): a myofibroblast growth medium containing 1 ng/mL TGF-β and the extract D provided by [preparation example A-4-2], wherein the extract D is present in the five sub-groups at a concentration of 0.78, 1.56, 3.13, 6.25 and 12.5 μg/mL respectively;
(6) Extract E group (including five sub-groups): a myofibroblast growth medium containing 1 ng/mL TGF-β and the extract E provided by [preparation example A-4-3], wherein the extract E is present in the five sub-groups at a concentration of 0.78, 1.56, 3.13, 6.25 and 12.5 μg/mL respectively; […]

SMILES: C[C@]12C=CC(=O)C=C1CC[C@@H]1[C@@H]2[C@@H](O)C[C@@]2(C)[C@H]1CC[C@]2(O)C(=O)CO [Pred, Prednisolone, reference compound]
- Effect on inhibiting the 1 μg/mL LPS-induced increment in active expression of MMP-9 (in words) ([1]; all tested concentrations): cannot inhibit
- Relative active expression of MMP-9 (%) ([1]; Table 5, Pred 5 μM, blank 0%, control 100%): 97%

SMILES: Cc1ccc(=O)n(-c2ccccc2)c1 [Pir, Pirfenidone, reference compound]
- Relative content of collagen (%) ([2]; Table 6, Pir 200 μg/mL, 48 hours, blank 0%, control 100%): 69%
- Relative content of collagen (%) ([2]; Table 7, Pir 200 μg/mL, 24 hours, blank 0%, control 100%): 0%

SMILES: C=C(CC[C@@H](C(=O)O)[C@H]1[C@H](O)C[C@@]2(C)C3=CC[C@H]4C(C)(C)[C@@H](O)CC[C@]4(C)C3=CC[C@]12C)C(C)C [DTA, dehydrotumulosic acid]
- Relative active expression of MMP-9 (%) ([1]; Table 4, 3.13 μg/mL): 79.7%
- Relative active expression of MMP-9 (%) ([1]; Table 4, 6.25 μg/mL): 83.9%
- Relative active expression of MMP-9 (%) ([1]; Table 4, 12.5 μg/mL): 80.7%

SMILES: CC(C)=CCC[C@@H](C(=O)O)[C@H]1CC[C@@]2(C)C3=CC[C@H]4C(C)(C)[C@@H](O)CC[C@]4(C)C3=CC[C@]12C [DTTA, dehydrotrametenolic acid]
- Relative content of collagen (%) ([2]; Table 7, 0.39 μg/mL, 24 hours): 25%
- Relative content of collagen (%) ([2]; Table 7, 0.78 μg/mL, 24 hours): 100%
- Relative content of collagen (%) ([2]; Table 7, 1.56 μg/mL, 24 hours): 25%
- Relative content of collagen (%) ([2]; Table 7, 3.13 μg/mL, 24 hours): 53%
- Relative content of collagen (%) ([2]; Table 7, 6.25 μg/mL, 24 hours): 70%
- Relative active expression of MMP-9 (%) ([1]; Table 5, 0.39 μg/mL): 91%
- Relative active expression of MMP-9 (%) ([1]; Table 5, 0.78 μg/mL): 99%
- Relative active expression of MMP-9 (%) ([1]; Table 5, 1.56 μg/mL): 79%
- Relative active expression of MMP-9 (%) ([1]; Table 5, 3.13 μg/mL): 72%
- Relative active expression of MMP-9 (%) ([1]; Table 5, 6.25 μg/mL): 74%

SMILES: C[C@@H]1C[C@H]2[C@@H]3CCC4=CC(=O)C=C[C@]4(C)[C@@]3(F)[C@@H](O)C[C@]2(C)[C@@]1(O)C(=O)CO [Dex, dexamethasone, reference compound]
- Relative active expression of MMP-9 (%) ([1]; Table 4, Dex 1 μM, blank 0%, control 100%): 100%
